Laboratory results published in patent US5786335A, “Sulfhydryl containing peptides for treating vascular disease” (Warner-Lambert Company, priority 1996, dated 1998).
Residues, ends and D or L forms follow the SMILES beside them. No end group written: not given here.

Molecular target: Lp(a) formation (coupling between apo(a) and LDL) (Homo sapiens, UniProt P08519)
Experiment: in vitro Lp(a) formation assay: coupling of recombinant human apo(a) with LDL, western blot with densitometry or visual inspection
Type: biochemical
Design: key to Relative Activity: An easily detectable change from control was assigned as (+); a marked change from control was assigned as (++)
Conditions: for inhibition at 125 µM: 125 μM peptide, densitometry of Lp(a) bands; for inhibition at 125 µM / IC50: 37° C. for 30 minutes; for IC50: western blot, read-out: IC50 (concentration required to inhibit 50% of Lp(a) formation)
Method: As pointed out above, the peptides of this invention are useful for treating vascular diseases due to their ability to inhibit formation of Lp(a). The compounds have been evaluated in an in vitro assay which established that the subject compounds are potent inhibitors of Lp(a) formation. The assay was carried out by mixing approximately equal quantities of recombinant human apo(a) with low-density lipoprotein (LDL) in a […] microcentrifuge tube. Control vessels contained no invention peptide, whereas test vessels contained a peptide of Formula I. The mixtures were incubated at 37° C. for 30 minutes. The coupling between apo(a) and LDL was quenched by addition of sodium dodecylsulfate (SDS)-PAGE loading buffer. The mixture is next resolved on 4% polyacrylamide gels, and Lp(a) is detected by western blotting using a monospecific human Lp(a) antibody. The intensity of the Lp(a) bands on the blots is measured by a commercial densitometer.
Table I below gives the percent inhibition of Lp(a) formation at 125 μM concentration of representative peptides of the invention, as well as the concentration of representative compounds required to inhibit 50% of Lp(a) formation (IC50).
Additional compounds were evaluated in the above assay, and the western blots were visually inspected for changes in Lp(a) particle formation as a consequence of peptide mediated inhibition. Experimental lanes were visually compared to control lanes and assessed as follows: An easily detectable change from control was assigned as (+); a marked change from control was assigned as (++).

Sequence of Lp(a) formation (coupling between apo(a) and LDL) (P08519 20-2040): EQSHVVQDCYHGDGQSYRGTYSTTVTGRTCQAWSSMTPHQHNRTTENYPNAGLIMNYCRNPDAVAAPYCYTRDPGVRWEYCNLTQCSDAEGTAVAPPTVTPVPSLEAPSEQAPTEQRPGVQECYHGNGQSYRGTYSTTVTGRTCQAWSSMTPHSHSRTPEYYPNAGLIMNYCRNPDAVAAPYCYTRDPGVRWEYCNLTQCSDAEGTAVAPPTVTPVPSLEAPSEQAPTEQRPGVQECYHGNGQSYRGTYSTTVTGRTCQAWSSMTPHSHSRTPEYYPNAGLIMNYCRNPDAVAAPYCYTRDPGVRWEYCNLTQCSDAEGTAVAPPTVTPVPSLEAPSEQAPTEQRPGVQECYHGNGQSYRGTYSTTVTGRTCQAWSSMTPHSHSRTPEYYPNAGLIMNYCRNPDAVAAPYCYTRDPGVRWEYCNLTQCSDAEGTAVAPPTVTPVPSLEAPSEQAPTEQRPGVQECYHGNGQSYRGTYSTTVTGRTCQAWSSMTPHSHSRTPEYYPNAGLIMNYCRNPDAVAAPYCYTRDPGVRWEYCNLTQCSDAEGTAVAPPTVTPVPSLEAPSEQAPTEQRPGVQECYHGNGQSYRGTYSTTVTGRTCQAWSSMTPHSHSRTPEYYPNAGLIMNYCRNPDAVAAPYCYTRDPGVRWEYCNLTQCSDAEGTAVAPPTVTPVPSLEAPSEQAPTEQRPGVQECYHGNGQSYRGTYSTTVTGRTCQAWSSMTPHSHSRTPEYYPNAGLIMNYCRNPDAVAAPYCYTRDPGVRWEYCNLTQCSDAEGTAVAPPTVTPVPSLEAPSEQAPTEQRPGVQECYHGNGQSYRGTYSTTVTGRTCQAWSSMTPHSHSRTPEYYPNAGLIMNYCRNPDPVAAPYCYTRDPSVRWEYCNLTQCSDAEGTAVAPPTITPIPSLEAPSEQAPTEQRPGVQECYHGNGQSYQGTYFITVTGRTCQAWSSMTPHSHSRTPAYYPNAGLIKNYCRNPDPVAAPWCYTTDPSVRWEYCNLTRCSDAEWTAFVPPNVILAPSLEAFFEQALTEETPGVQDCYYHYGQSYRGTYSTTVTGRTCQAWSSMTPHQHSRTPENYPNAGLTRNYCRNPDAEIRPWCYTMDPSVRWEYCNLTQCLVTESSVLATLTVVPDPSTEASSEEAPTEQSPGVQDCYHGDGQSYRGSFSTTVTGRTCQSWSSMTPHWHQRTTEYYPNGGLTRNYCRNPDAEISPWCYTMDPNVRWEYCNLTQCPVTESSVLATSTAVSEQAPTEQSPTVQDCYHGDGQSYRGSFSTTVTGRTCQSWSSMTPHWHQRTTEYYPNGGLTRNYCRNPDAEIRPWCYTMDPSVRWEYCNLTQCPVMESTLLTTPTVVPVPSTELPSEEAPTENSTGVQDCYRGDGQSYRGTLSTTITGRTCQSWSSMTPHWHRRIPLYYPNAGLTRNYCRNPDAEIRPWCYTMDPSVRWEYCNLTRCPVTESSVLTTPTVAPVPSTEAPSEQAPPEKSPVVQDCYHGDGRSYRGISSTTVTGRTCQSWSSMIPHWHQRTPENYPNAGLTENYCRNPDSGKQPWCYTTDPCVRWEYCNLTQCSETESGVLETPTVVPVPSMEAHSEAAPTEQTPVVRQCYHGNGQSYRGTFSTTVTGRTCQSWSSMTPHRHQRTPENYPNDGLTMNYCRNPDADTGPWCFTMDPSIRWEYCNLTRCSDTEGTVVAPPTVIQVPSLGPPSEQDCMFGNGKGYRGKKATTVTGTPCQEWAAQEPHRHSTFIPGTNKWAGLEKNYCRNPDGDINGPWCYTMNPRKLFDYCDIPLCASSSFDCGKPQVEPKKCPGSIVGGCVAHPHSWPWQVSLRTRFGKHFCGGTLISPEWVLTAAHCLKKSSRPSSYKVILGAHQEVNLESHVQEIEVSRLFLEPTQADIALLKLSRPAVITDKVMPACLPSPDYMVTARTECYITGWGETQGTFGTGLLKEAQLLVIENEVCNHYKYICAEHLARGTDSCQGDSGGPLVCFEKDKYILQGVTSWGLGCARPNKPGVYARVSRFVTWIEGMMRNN

Compound | Relative Activity (western blots visually inspected, experimental lanes compared to control lanes) | inhibition at 125 µM | IC50
CC(=O)N[C@@H](CS)C(=O)N[C@@H](Cc1ccc(O)cc1)C(=O)N[C@@H](CCCCN)C(N)=O [Ac--Cys--Tyr--Lys--NH2] (Ac-Cys-Tyr-Lys-NH2) | + |  | 
NCCCC[C@H](NC(=O)[C@H](Cc1ccc(O)cc1)NC(=O)[C@@H](N)CS)C(=O)O [Cys--Tyr--Lys] (H-Cys-Tyr-Lys-OH) |  | 90% | 50 µM
AQCYK [Ala--Gln--Cys--Tyr--Lys] |  | 36.9% | 
IACYK [Ile--Ala--Cys--Tyr--Lys] |  | 29.8% | 

Further lines, results first:

Relative Activity (western blots visually inspected, experimental lanes compared to control lanes) | inhibition at 125 µM | IC50 | Compound
 | 76.4% |  | IQCAK [Ile--Gln--Cys--Ala--Lys]
 | 50.1% | 109 µM | IQCYK [Ile--Gln--Cys--Tyr--Lys, Ile-Gln-Cys-Tyr-Lys]
